# Data: patent US10092565B2, “Treatment of proliferative disorders with a chemiluminescent agent” (Semorex Technologies Ltd., priority 2011, dated 2018)
# pIC50: −log10 of the molar value. Like-named read-outs stand apart in the source and are kept apart here.
# What was measured:
# [1] = tested on: CHRF line acute myeloid leukemia (AML) cells; assay: XTT growth inhibition of CHRF AML cells, 72 hours; type: cell-based; details: for Growth inhibition (%): 80 µM
# Method: Cells were grown in full culture medium for 24 hours. The medium was then removed and cells were washed with PBS. The PBS was then replaced by fresh medium containing different concentrations of SEM-011 in a range of 50 to 800 μM, or with SEM-011-free medium as a control. […] Growth inhibition was evaluated by calculating the percent decrease in absorbance in SEM-011-treated test cultures as compared to control cultures.
# [2] = tested on: PC-3 prostate cancer cells; assay: PC-3 prostate cancer tumors in nu/nu mice, tumor volume / Progression Index; type: in vivo
# Method: Tumor volumes were quantified (in cm^3) at the indicated times by using the formula: tumor volume=(width^2×length)/2. Tumor volume index or Progression Index refers to the ratio of a tumor volume at an indicated time to the first volume measured for that tumor.
# Nu/nu nude mice were inoculated on their right flank with 2×10^6 PC-3 prostate cancer cells in a Matrigel mixture. Following inoculation, two mice were treated with escalating concentrations of L-012 (also referred to herein as “SEM-007”) by intraperitoneal injections twice per week, according to the following schedule:
# As a control, two mice were inoculated with PC-3 cells without receiving L-012.
# The volume of the tumor was then monitored.
# The tumor volume was measured periodically beginning on day 25 post-inoculation, and the weight loss over the course of the experiment was also measured.
# Each treatment group and each control group consisted of four (and sometimes five) mice.
# In another set of experiments, Nu/nu male mice, 1.5-month old, were injected subcutaneously on the right flank with PC-3 cells (2.0×10^6 cells/mouse). On days 4, 8, 12, 15, 19, 36, 42 and […] (after the beginning of treatment), mice were treated with either vehicle (PBS) or 43 mg/Kg L012 by intraperitoneal injections. From the beginning of treatment, tumor dimensions were measured and tumor volume calculated. Progression Index was calculated as the ratio of tumor volume growth at a particular time point to the tumor volume at the initiation of treatment.
# (§1) Control animals received an intraperitoneal injection of PBS.
# The tumor volume was measured periodically beginning on day 35 post-inoculation.
# Nu/nu male mice, 1.5-month old, were injected subcutaneously on the right flank with PC-3 cells (2.0×10^6 cells/mouse). On days 4, 8, 12, 15, 19, 36, 42 and 46 (after beginning of treatment), mice were treated with either vehicle (PBS) or 43 mg/Kg SEM 009, by intravenous injection, as indicated.
# From the beginning of treatment, tumor dimensions were measured and tumor volume calculated. Progression Index was calculated as the ratio of tumor volume rowth at a particular time point to the tumor volume at the initiation of treatment.
# PC-3 cells = assay: Alamar Blue growth inhibition of PC-3 cells; type: cell-based, human; details: for pIC50: read-out: Est IC50
# Method: In additional sets of experiments. […] At the end of the culture period, the level of mitochondrial metabolism was measured (using Alamar Blue assay) and the activity of the chemiluminescent agents was determined by percents of growth inhibition; the inhibition of growth in treated cell cultures compared to non-treated, control cells.
# [3] = for effect on decrease in body weight following inoculation with tumor cells: FIG. 5
# Text: FIG. 5 is a bar graph showing the change in body weight of nu/nu mice 28 and 77 days after inoculation with PC-3 cells, following intraperitoneal injection of L-012 once per week (L012 l/w) or twice per week (L012 2/w) during days 35-56 after inoculation, and without L-012 administration (Control);
# Nu/nu mice were inoculated with PC-3 cells as described in Example 1, and on day 35 post-inoculation, the animals were divided into three groups.
# as §1
# A second group received one weekly injection of 41.3 mg/kg L-012 for 3 weeks, i.e., on days 35, 42 and 49 post-inoculation. A third group received two weekly injections of 41.3 mg/kg L-012 for 3 weeks, i.e., on days 35, 36, 42, 47, 49 and 56.
# [4] = tested on: OvCar-3 ovarian cancer cells, SKOV-3 ovarian cancer cells, HepG2 liver cancer cells, PC-3 prostate cancer cells, CHRF acute myeloid leukemia cells; assay: XTT growth inhibition IC50 in a panel of cancer cell lines, 72 hours; type: cell-based; details: all tested cell lines, FIG. 7
# Method: (§2) The compound SEM-011 was tested for anti-cancer activity, using the PC-3 prostate cancer cell line. Cells were grown in full culture medium for 24 hours. The medium was then removed and cells were washed with PBS. The PBS was then replaced by fresh medium containing different concentrations of SEM-011 in a range of 50 to 800 μM, or with SEM-011-free medium as a control. Cells were then cultured for 24 hours, after which time the level of cellular metabolism in the cultures was measured using a standard XTT (2,3-bis-(2-methoxy-4-nitro-5-sulfophenyl)-2H-tetrazolium-5-carboxanilide) assay. Growth inhibition was evaluated by calculating the percent decrease in absorbance in SEM-011-treated test cultures as compared to control cultures.
# (§3) The compounds SEM-007 (also referred to herein and in the art as “L-012”) and SEM-009 (also referred to in the art as “L-002”) were tested for anti-cancer activity using a variety of cell lines. The cell lines used were OvCar-3 ovarian cancer cells, SKOV-3 ovarian cancer cells, HepG2 liver cancer cells, PC-3 prostate cancer cells, and CHRF acute myeloid leukemia cells.
# [5] = as above; type: cell-based; details: span over all tested cell lines, FIG. 7, read-out: IC50 (concentration which resulted in 50% growth inhibition)
# Method: as §2, §3
# [6] = tested on: PC-3 prostate cancer cell line; assay: XTT growth inhibition of PC-3 cells, 24 hours; type: cell-based, human
# Method: as §2
# [7] = Homo sapiens, PC-3, 200 uM, 24 hrs
# [8] = Homo sapiens, PC-3, 200 uM, 48 hrs
# [9] = Homo sapiens, PC-3, 400 uM, 24 hrs
# [10] = Homo sapiens, PC-3, 400 uM, 48 hrs
# [11] = Homo sapiens, PC-3, 800 uM, 24 hrs
# [12] = Homo sapiens, PC-3, 800 uM, 48 hrs
# [13] = Homo sapiens, PC-3, 200 uM, 72 hrs
# [14] = Homo sapiens, PC-3, 400 uM, 72 hrs
# [15] = Homo sapiens, PC-3, 800 uM, 72 hrs
molecule,measurement,setting,value
C[n+]1c2ccccc2c(-c2c3ccccc3[n+](C)c3ccccc23)c2ccccc21 [Lucigenin],Growth inhibition (%),[1],33%
Nc1cccc2c(=O)[nH][nH]c(=O)c12 [Luminol],inhibition at 80 µM,"[1]; 72 h, read-out: Growth inhibition (%)",40%
"Nc1c(-c2ccccc2)nc(Cl)c2c(=O)[nH][nH]c(=O)c12 [SEM-007, L-012]",reduction of tumor volume in comparison with the PBS-treated control,"[2]; 41.3 mg/kg intraperitoneal on days 25, 28, 32, 35, at day 65, FIG. 3A",54%
same,reduction of tumor volume in comparison with the PBS-treated control,"[2]; 41.3 mg/kg once per week for 3 weeks, at day 73, FIGS. 4A, 4B",45%
same,reduction of tumor volume in comparison with the PBS-treated control,"[2]; 41.3 mg/kg twice per week for 3 weeks, at day 73, FIGS. 4A, 4B",95%
same,Progression Index compared to non-treated mice,"[2]; 43 mg/Kg intraperitoneal, FIG. 3B",sharp increase in the Progression Index
same,average tumor volume progression after administration,"[2]; escalating L-012 41.3, 66.5, 100.4 mg/kg intraperitoneal on days 32, 39, 43, FIG. 2","halted tumor progression, with no increase in average tumor volume"
same,tumor volume reduction (summary of FIGS. 2-4B),"[2]; prostate cancer cells injected into mice, dose dependent",up to 95%
same,% growth inhibition,"PC-3 cells; 25 uM, 48 hrs",27%
same,% growth inhibition,"PC-3 cells; 25 uM, 73 hrs",11%
same,% growth inhibition,"PC-3 cells; 50 uM, 24 hrs",46.46%
same,% growth inhibition,"PC-3 cells; 50 uM, 48 hrs",31%
same,% growth inhibition,"PC-3 cells; 50 uM, 73 hrs",20%
same,% growth inhibition,"PC-3 cells; 100 uM, 24 hrs",65.25%
same,% growth inhibition,"PC-3 cells; 100 uM, 48 hrs",38%
same,% growth inhibition,"PC-3 cells; 100 uM, 73 hrs",38%
same,% growth inhibition,"PC-3 cells; 200 uM, 24 hrs",66.84%
same,% growth inhibition,"PC-3 cells; 200 uM, 48 hrs",58%
same,% growth inhibition,"PC-3 cells; 200 uM, 73 hrs",58.0%
same,% growth inhibition,"PC-3 cells; 400 uM, 24 hrs",77.73%
same,% growth inhibition,"PC-3 cells; 400 uM, 48 hrs",70%
same,% growth inhibition,"PC-3 cells; 400 uM, 73 hrs",76%
same,% growth inhibition,"PC-3 cells; 800 uM, 24 hrs",73.80%
same,% growth inhibition,"PC-3 cells; 800 uM, 48 hrs",78%
same,% growth inhibition,"PC-3 cells; 800 uM, 73 hrs",90%
same,pIC50,PC-3 cells; 48 hrs,3.80
same,pIC50,PC-3 cells; 73 hrs,3.85
same,systemic toxicity or morbidity in tumor-bearing mice,[3]; 41.3 mg/kg once or twice per week,does not result in systemic toxicity or morbidity
same,effect on decrease in body weight following inoculation with tumor cells,[3]; 41.3 mg/kg once per week,partially inhibited the decrease in body weight
same,effect on decrease in body weight following inoculation with tumor cells,[3]; 41.3 mg/kg twice per week,completely reversed the decrease in body weight
"O=c1[nH][nH]c(=O)c2c(O)c(-c3ccccc3)ncc12 [SEM-009, 8-hydroxy-7-phenyl-2,3-dihydropyrido[4,3-d]pyridazine-1,4-dione]",Progression Index compared to non-treated mice,"[2]; 43 mg/Kg SEM 009 by intravenous injection, FIG. 9",sharp decrease in the Progression Index
same,IC50 compared with SEM-007,[4],lower than that of SEM-007 in all of the tested cell lines
same,pIC50,[5],3.70 to 4.40
same,inhibition at 50 µM,"PC-3 cells; Homo sapiens, PC-3, 50 uM, 24 hrs",-27.2%
same,inhibition at 50 µM,"PC-3 cells; Homo sapiens, PC-3, 50 uM, 48 hrs",26.6%
same,inhibition at 50 µM,"PC-3 cells; Homo sapiens, PC-3, 50 uM, 73 hrs",21.3%
same,inhibition at 100 µM,"PC-3 cells; Homo sapiens, PC-3, 100 uM, 24 hrs",81.4%
same,inhibition at 100 µM,"PC-3 cells; Homo sapiens, PC-3, 100 uM, 48 hrs",49.2%
same,inhibition at 100 µM,"PC-3 cells; Homo sapiens, PC-3, 100 uM, 73 hrs",47.8%
same,inhibition at 200 µM,PC-3 cells; [7],84.2%
same,inhibition at 200 µM,PC-3 cells; [8],80.3%
same,inhibition at 200 µM,"PC-3 cells; Homo sapiens, PC-3, 200 uM, 73 hrs",80.5%
same,inhibition at 400 µM,PC-3 cells; [9],90.6%
same,inhibition at 400 µM,PC-3 cells; [10],83.7%
same,inhibition at 400 µM,"PC-3 cells; Homo sapiens, PC-3, 400 uM, 73 hrs",85.6%
same,inhibition at 800 µM,PC-3 cells; [11],89.1%
same,inhibition at 800 µM,PC-3 cells; [12],85.7%
same,inhibition at 800 µM,"PC-3 cells; Homo sapiens, PC-3, 800 uM, 73 hrs",89%
same,pIC50,"PC-3 cells; Homo sapiens, PC-3, 48 hrs",4.00
same,pIC50,"PC-3 cells; Homo sapiens, PC-3, 73 hrs",3.96
"NNc1nc(-c2ccccc2)c(O)c2c(=O)[nH][nH]c(=O)c12 [SEM-011, 5-hydrazinyl-8-hydroxy-7-phenyl-2,3-dihydropyrido[4,3-d]pyridazine-1,4-dione]",inhibition at 50 µM,"[6]; Homo sapiens, PC-3, 50 μM",50%
same,inhibition at 100 µM,"[6]; Homo sapiens, PC-3, 100 μM",87%
same,inhibition at 200 µM,"[6]; Homo sapiens, PC-3, 200 μM",96%
same,inhibition at 400 µM,"[6]; Homo sapiens, PC-3, 400 μM",96%
same,inhibition at 800 µM,"[6]; Homo sapiens, PC-3, 800 μM",96%
same,PC-3 cell growth inhibition in words,[6]; concentrations of 200 μM or more,almost completely inhibited PC-3 cell growth
"O=c1[nH][nH]c(=O)c2c(O)c(-c3ccccc3Cl)ncc12 [SEM-013, 8-hydroxy-7-(2-chlorophenyl)-2,3-dihydropyrido[4,3-d]pyridazine-1,4-dione]",inhibition at 200 µM,PC-3 cells; [7],23.8%
same,inhibition at 200 µM,PC-3 cells; [8],22.3%
same,inhibition at 200 µM,PC-3 cells; [13],23.1%
same,inhibition at 400 µM,PC-3 cells; [9],30.1%
same,inhibition at 400 µM,PC-3 cells; [10],29.1%
same,inhibition at 400 µM,PC-3 cells; [14],41.7%
same,inhibition at 800 µM,PC-3 cells; [11],37.1%
same,inhibition at 800 µM,PC-3 cells; [12],55.5%
same,inhibition at 800 µM,PC-3 cells; [15],64.2%
"O=c1[nH][nH]c(=O)c2c(O)c(-c3ccc(Cl)cc3)ncc12 [SEM-014, 8-hydroxy-7-(4-chlorophenyl)-2,3-dihydropyrido[4,3-d]pyridazine-1,4-dione]",inhibition at 200 µM,PC-3 cells; [7],51.6%
same,inhibition at 200 µM,PC-3 cells; [8],71.9%
same,inhibition at 200 µM,PC-3 cells; [13],68.2%
same,inhibition at 400 µM,PC-3 cells; [9],55.7%
same,inhibition at 400 µM,PC-3 cells; [10],70.5%
same,inhibition at 400 µM,PC-3 cells; [14],72.7%
same,inhibition at 800 µM,PC-3 cells; [11],54.3%
same,inhibition at 800 µM,PC-3 cells; [12],71.3%
same,inhibition at 800 µM,PC-3 cells; [15],76.1%
MCLA,Growth inhibition (%),[1],85%
